*1 amine or outer side, *2 acyl side, *3 side chain or, on linkers, in order; H or OH if unused. Where a SMILES comes first, the peptide text is derived from it. Bridges are numbered along the chain shown (N, C = ends). [ ]: non-standard residue; d: D form. The star is where a group is joined. Benzoyl(4-O-C6H4-4-CONHMe) = CNC(=O)c1ccc(Oc2ccc(C(=O)*)cc2)cc1; Benzenesulfonyl(4-OPh) = O=S(=O)(c1ccc(Oc2ccccc2)cc1)*; X4 = NC(=O)CCCCNC(=O)c1ccc(Oc2ccc(C(=O)*)cc2)cc1; X16 = O=C(O)CCNC(=O)c1ccc(Oc2ccc(C(=O)*)cc2)cc1; X3 = O=C(Nc1ccc(S(=O)(=O)*)cc1)c1ccc(OC2CC2)cc1; Benzoyl(4-OPh) = O=C(c1ccc(Oc2ccccc2)cc1)*; d(γGlu) = O=C(O)[C@@H](CCC(=O)[*:2])N[*:1]; d(βAsp) = O=C(O)[C@@H](CC(=O)[*:2])N[*:1]; NMeW = CN[C@@H](Cc1c[nH]c2ccccc12)C(=O)O; X5 = O=S(=O)(c1ccc(-c2ccc(CO)cc2)cc1)*; NMeI = CC[C@H](C)[C@H](NC)C(=O)O; NMeE = CN[C@@H](CCC(=O)O)C(=O)O; NMeD = CN[C@@H](CC(=O)O)C(=O)O; NMeN = CN[C@@H](CC(N)=O)C(=O)O; NMeL = CN[C@@H](CC(C)C)C(=O)O; β3hP = O=C(O)C[C@@H]1CCCN1; Dab = NCC[C@H](N)C(=O)O; Ahx = NCCCCCC(=O)O; Ava = NCCCCC(=O)O; GABA = NCCCC(=O)O; βAla = NCCC(=O)O
Biological target: T1, MMP2 (Homo sapiens, UniProt P08253)
T1 sequence (P08253 110-660): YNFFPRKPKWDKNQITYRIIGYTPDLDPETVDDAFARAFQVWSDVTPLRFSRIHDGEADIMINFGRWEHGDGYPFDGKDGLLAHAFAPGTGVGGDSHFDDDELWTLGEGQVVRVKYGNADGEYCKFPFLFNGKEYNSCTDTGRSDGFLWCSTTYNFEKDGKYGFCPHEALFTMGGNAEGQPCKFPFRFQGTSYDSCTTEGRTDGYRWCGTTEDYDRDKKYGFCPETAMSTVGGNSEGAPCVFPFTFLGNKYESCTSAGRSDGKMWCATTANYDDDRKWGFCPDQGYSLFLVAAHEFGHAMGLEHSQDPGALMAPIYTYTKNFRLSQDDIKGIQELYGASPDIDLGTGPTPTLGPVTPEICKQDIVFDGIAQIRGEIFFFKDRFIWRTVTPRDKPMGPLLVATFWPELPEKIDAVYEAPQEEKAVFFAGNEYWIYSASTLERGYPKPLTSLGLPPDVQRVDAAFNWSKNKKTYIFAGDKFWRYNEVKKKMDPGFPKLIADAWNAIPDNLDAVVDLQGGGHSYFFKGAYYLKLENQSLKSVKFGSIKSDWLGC
Experiment: Inhibitory effects on human MMP2 (Method 1), enzyme assay with MOCAc-Pro-Leu-Gly-Leu-A2pr(Dnp)-Ala-Arg-NH2 substrate, 96-well
Format: biochemical
Conditions: Test Example No. 1-1 (Method 1, 96-well microplate); read-out: Human MMP2, IC50
Method: In a reaction solution [50 mmol/L Tris-HCl (pH 7.5), 150 mmol/L NaCl, 10 mmol/L CaCl2, 0.05% Brij L23], 100 μg/mL human recombinant MMP2 enzyme and 1 mmol/L 4-Aminophenylmercuric acetate were mixed together, and reacted at 37° C. for 60 minutes. The human MMP2 activated through the reaction was poured into a 96-well microplate to reach a final concentration of 0.7 or 7 ng/mL.

Structure (SMILES) | IC50 [nM]
CC[C@H](C)[C@@H](C(=O)N1CCC[C@H]1C(N)=O)N(C)C(=O)[C@H](CC(C)C)NC(=O)[C@H](C)NC(=O)[C@H](CC(=O)O)NC(=O)[C@H](CC(C)C)N(C)C(=O)CCCNC(=O)c1ccc(Oc2ccccc2)cc1 [Compound 120] ({Benzoyl(4-OPh)-GABA}-[NMeL]DAL[NMeI]P-NH2; N-terminus assumed) | 0.21
CC[C@H](C)[C@@H](C(=O)N1CCC[C@H]1C(N)=O)N(C)C(=O)[C@H](CC(C)C)NC(=O)[C@H](CCN)NC(=O)[C@H](CC(=O)O)NC(=O)[C@H](CC(N)=O)NC(=O)CCCNC(=O)c1ccc(Oc2ccccc2)cc1 [Compound 107] ({Benzoyl(4-OPh)-GABA}-ND[Dab]L[NMeI]P-NH2; N-terminus assumed) | 0.32
CC[C@H](C)[C@@H](C(=O)N1CCC[C@H]1C(N)=O)N(C)C(=O)[C@H](CC(C)C)NC(=O)[C@H](C)NC(=O)[C@H](CC(=O)O)NC(=O)[C@@H]1CCCN1C(=O)CCCNC(=O)c1ccc(Oc2ccccc2)cc1 [Compound 117] ({Benzoyl(4-OPh)-GABA}-PDAL[NMeI]P-NH2; N-terminus assumed) | 0.55
CC[C@H](C)[C@@H](C(=O)N1CCC[C@H]1CC(N)=O)N(C)C(=O)[C@H](CC(C)C)NC(=O)[C@H](CCN)NC(=O)[C@H](CC(=O)O)NC(=O)[C@H](CCC(=O)O)NC(=O)CCCNC(=O)c1ccc(Oc2ccccc2)cc1 [Compound 147] ({Benzoyl(4-OPh)-GABA}-ED[Dab]L[NMeI][β3hP]-NH2; N-terminus assumed) | 0.14
CC(C)C[C@H](NC(=O)[C@H](CCN)NC(=O)[C@H](CC(=O)O)NC(=O)[C@H](CC(N)=O)N(C)C(=O)CCCNC(=O)c1ccc(Oc2ccccc2)cc1)C(=O)N(C)[C@@H](CCC(=O)O)C(=O)N1CCC[C@H]1C(N)=O [Compound 113] ({Benzoyl(4-OPh)-GABA}-[NMeN]D[Dab]L[NMeE]P-NH2; N-terminus assumed) | 2.2
CC[C@H](C)[C@@H](C(=O)N1CCC[C@H]1C(N)=O)N(C)C(=O)[C@H](CC(C)C)NC(=O)[C@H](C)NC(=O)[C@H](CC(=O)O)NC(=O)[C@H](Cc1c[nH]c2ccccc12)N(C)C(=O)CCCNC(=O)c1ccc(Oc2ccccc2)cc1 [Compound 130] ({Benzoyl(4-OPh)-GABA}-[NMeW]DAL[NMeI]P-NH2; N-terminus assumed) | 0.36
CC[C@H](C)[C@@H](C(=O)N1CCC[C@H]1C(N)=O)N(C)C(=O)[C@H](CC(C)C)NC(=O)[C@H](C)NC(=O)[C@H](CC(=O)O)NC(=O)[C@@H](CC(N)=O)NC(=O)CCCNC(=O)c1ccc(Oc2ccccc2)cc1 [Compound 114] ({Benzoyl(4-OPh)-GABA}-[dN]DAL[NMeI]P-NH2; N-terminus assumed) | 0.072
CC[C@H](C)[C@@H](C(=O)N1CCC[C@H]1CC(N)=O)N(C)C(=O)[C@H](CC(C)C)NC(=O)[C@H](CCN)NC(=O)[C@H](CC(=O)O)NC(=O)[C@H](CCCNC(=N)N)NC(=O)CCCCCNC(=O)c1ccc(Oc2ccc(C(=O)NC)cc2)cc1 [Compound 191] ({Benzoyl(4-O-C6H4-4-CONHMe)-Ahx}-RD[Dab]L[NMeI][β3hP]-NH2; N-terminus assumed) | 2.7

More lines, now with the values ahead:

IC50 [nM] | Structure (SMILES)
7 | CC(C)C[C@H](NC(=O)[C@H](CCN)NC(=O)[C@H](CC(=O)O)NC(=O)[C@H](CC(N)=O)NC(=O)CCCCNC(=O)c1ccc(Oc2ccc(C(=O)NCCC(=O)O)cc2)cc1)C(=O)N(C)[C@@H](CCC(=O)O)C(=O)N1CCC[C@H]1CC(N)=O [Compound 183] ({X16-Ava}-ND[Dab]L[NMeE][β3hP]-NH2; N-terminus assumed)
0.86 | CC[C@H](C)[C@@H](C(=O)N1CCC[C@H]1CC(N)=O)N(C)C(=O)[C@H](CC(C)C)NC(=O)[C@H](CCN)NC(=O)[C@H](CC(=O)O)NC(=O)[C@H](CCCNC(=N)N)NC(=O)CCCCNC(=O)c1ccc(Oc2ccc(C(=O)NC)cc2)cc1 [Compound 189] ({Benzoyl(4-O-C6H4-4-CONHMe)-Ava}-RD[Dab]L[NMeI][β3hP]-NH2; N-terminus assumed)
1.4 | CC(C)C[C@H](NC(=O)[C@H](CCN)NC(=O)[C@H](CC(=O)O)NC(=O)[C@H](CCC(=O)O)NC(=O)CCCCNC(=O)c1ccc(Oc2ccc(C(=O)NCCCCC(N)=O)cc2)cc1)C(=O)N(C)[C@@H](CCC(=O)O)C(=O)N1CCC[C@H]1CC(N)=O [Compound 199] ({X4-Ava}-ED[Dab]L[NMeE][β3hP]-NH2; N-terminus assumed)
2 | CNC(=O)c1ccc(Oc2ccc(C(=O)NCCCCCC(=O)N[C@@H](CCCCN)C(=O)N[C@@H](CC(=O)O)C(=O)N[C@@H](CCN)C(=O)N[C@@H](CC(C)C)C(=O)N(C)[C@@H](CCC(=O)O)C(=O)N3CCC[C@H]3CC(N)=O)cc2)cc1 [Compound 186] ({Benzoyl(4-O-C6H4-4-CONHMe)-Ahx}-KD[Dab]L[NMeE][β3hP]-NH2; N-terminus assumed)
0.41 | CC[C@H](C)[C@@H](C(=O)N1CCC[C@H]1CC(N)=O)N(C)C(=O)[C@H](CC(C)C)NC(=O)[C@H](CCN)NC(=O)CC[C@@H](NS(=O)(=O)c1ccc(NC(=O)c2ccc(OC3CC3)cc2)cc1)C(=O)O [Compound 700] ({X3-d(γGlu)}-[Dab]L[NMeI][β3hP]-NH2; N-terminus assumed)
0.81 | CNC(=O)c1ccc(Oc2ccc(C(=O)NCCCCC(=O)N[C@@H](CCCNC(=N)N)C(=O)N[C@@H](CC(=O)O)C(=O)N[C@@H](CCN)C(=O)N[C@@H](CC(C)C)C(=O)N(C)[C@@H](CCC(=O)O)C(=O)N3CCC[C@H]3CC(N)=O)cc2)cc1 [Compound 188] ({Benzoyl(4-O-C6H4-4-CONHMe)-Ava}-RD[Dab]L[NMeE][β3hP]-NH2; N-terminus assumed)
1.6 | CC[C@H](C)[C@@H](C(=O)N1CCC[C@H]1CC(N)=O)N(C)C(=O)[C@H](CC(C)C)NC(=O)[C@H](CCN)NC(=O)C[C@@H](NS(=O)(=O)c1ccc(-c2ccc(CO)cc2)cc1)C(=O)O [Compound 642] ({X5-d(βAsp)}-[Dab]L[NMeI][β3hP]-NH2; N-terminus assumed)
1.8 | CNC(=O)c1ccc(Oc2ccc(C(=O)NCCCCCC(=O)N[C@@H](CCCNC(=N)N)C(=O)N[C@@H](CC(=O)O)C(=O)N[C@@H](CCN)C(=O)N[C@@H](CC(C)C)C(=O)N(C)[C@@H](CCC(=O)O)C(=O)N3CCC[C@H]3CC(N)=O)cc2)cc1 [Compound 190] ({Benzoyl(4-O-C6H4-4-CONHMe)-Ahx}-RD[Dab]L[NMeE][β3hP]-NH2; N-terminus assumed)

Same assay, conditions: Test Example No. 1-1 (Method 1, 96-well); read-out: Human MMP2, IC50

IC50 [nM] | Structure (SMILES)
1.1 | CC[C@H](C)[C@@H](C(=O)N1CCC[C@H]1CC(N)=O)N(C)C(=O)[C@@H]1CCCCNC(=O)CCNC(=O)CC[C@H](NC(=O)CCCNS(=O)(=O)c2ccc(Oc3ccccc3)cc2)C(=O)N[C@@H](CC(=O)O)C(=O)N[C@@H](CCN)C(=O)N1 [Compound 894] ({Benzenesulfonyl(4-OPh)-GABA}-ED[Dab]K[NMeI][β3hP]-NH2; linker 1-4 via βAla (inferred); N-terminus assumed)
1.3 | CN(C(=O)[C@@H]1CCCCNC(=O)CCNC(=O)CC[C@H](NC(=O)CCCNS(=O)(=O)c2ccc(Oc3ccccc3)cc2)C(=O)N[C@@H](CC(=O)O)C(=O)N[C@@H](CCN)C(=O)N1)[C@@H](CC(=O)O)C(=O)N1CCC[C@H]1CC(N)=O [Compound 895] ({Benzenesulfonyl(4-OPh)-GABA}-ED[Dab]K[NMeD][β3hP]-NH2; linker 1-4 via βAla (inferred); N-terminus assumed)

Reference: patent publication US20240199692A1 (priority 2019, published 2024)
